Test results reported in patent EP4678638A1, “NEW E3 UBIQUITIN LIGASE LIGAND, PROTEIN DEGRADATION AGENT AND USE THEREOF” (priority 2023, dated 2024).
pIC50: −log10 of the molar value. Read-outs that look alike come from different tables or passages of the source.

What was measured:
[1] = tested on: MV-4-11; experiment: CCK-8 proliferation, MV-4-11; type: cell-based, Human; details: Homo sapiens, MV4-11; for IC50: Table B10, compounds designed based on the IRAK4 inhibitors, MV-4-11 cells, read-out: Inhibitory activity (IC50, nM) on tumor cell proliferation, MV-4-11; for pIC50: CCK-8, 72 or 96 hours, read-out: Inhibitory activity (IC50) on tumor cell proliferation, MV-4-11
Description: (§1) The tumor cells used herein were cultured in a cell culture medium listed in table A1 at 37°C in an incubator with 5% CO2. Prior to experimentation, all cell lines used were correctly identified by STR profiling, and tested negative for mycoplasma contamination using a mycoplasma detection kit through routine screenings. Table A1. Tumor cells and cell culture medium used in the present disclosure
(§2) IC50 values of the compounds of the present disclosure (including the compounds in Table 1, and compounds of examples) were measured using the Meilun Cell Counting Kit-8 kit from Dalian Meilun Biotech Co., Ltd. Assay details are as follows: tumor cells were seeded in a 96-well plate at a density listed in Table A2. After 24h, 100 µL of the inoculated cells were treated with 0.5µL of the compounds of the present disclosure (including the compounds in Tables 1 and 2, and compounds of examples) at 10 different successively decreasing concentrations (starting at the highest concentration of 10µM; 5-fold serial dilutions). After the cells were treated with the compounds of the present disclosure for a period of time, the cell viability detection reagent was added to the culture medium for cell viability assessment according to the instructions provided with the CCK-8 kit. […] The growth inhibition of the compounds of the present disclosure on cells was plotted by Prism Graphpad software, and the IC50 values of the compounds of the present disclosure were calculated therefrom. […] Seeding protocol and treatment time for tumor cells

[2] = tested on: CCRF-CEM; experiment: CCK-8 proliferation, CCRF-CEM; type: cell-based, Human; details: Homo sapiens, CCRF-CEM; CCK-8; 96 hours; read-out: Inhibitory activity (IC50) on tumor cell proliferation, CCRF-CEM
Description: as §1, §2

[3] = tested on: MCF7; experiment: CCK-8 proliferation, MCF7 (MCF-7); type: cell-based; details: Homo sapiens, MCF7; CCK-8; read-out: Inhibitory activity (IC50) on tumor cell proliferation, MCF-7
Method in brief: (§3)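 CCK-8 viability readout; IC50 from growth-inhibition curve fitting. Cells plated, dosed 24h later with a 10-point series, top 10µM, 5-fold steps. Culture at 37°C, 5% CO2.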

[4] = target: T1, IKZF2 (Homo sapiens, UniProt Q96SW2+Q9UKS7); experiment: Western blot degradation of IKZF2 (hPBMC); type: cell-based; details: Table D16
T1 construct: evaluate the effects of the compounds of the present disclosure on the expression of target proteins in cells; endogenous in cells; host or cells: hPBMC
T1 sequence (Q9UKS7 whole entry): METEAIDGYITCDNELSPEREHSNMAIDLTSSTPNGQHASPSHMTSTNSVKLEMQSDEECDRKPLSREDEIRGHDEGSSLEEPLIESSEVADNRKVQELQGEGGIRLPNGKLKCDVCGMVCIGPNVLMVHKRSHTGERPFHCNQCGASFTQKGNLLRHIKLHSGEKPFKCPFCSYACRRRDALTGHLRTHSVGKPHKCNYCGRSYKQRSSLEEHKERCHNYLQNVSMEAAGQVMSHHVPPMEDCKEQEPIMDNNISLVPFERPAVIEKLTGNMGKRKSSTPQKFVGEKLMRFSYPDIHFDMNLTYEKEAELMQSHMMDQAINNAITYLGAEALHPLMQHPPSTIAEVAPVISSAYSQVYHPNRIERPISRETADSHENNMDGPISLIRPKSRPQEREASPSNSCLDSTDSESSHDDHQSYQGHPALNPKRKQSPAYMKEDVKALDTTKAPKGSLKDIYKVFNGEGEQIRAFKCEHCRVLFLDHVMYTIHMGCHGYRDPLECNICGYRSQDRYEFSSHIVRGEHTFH
T1 sequence (Q96SW2 whole entry): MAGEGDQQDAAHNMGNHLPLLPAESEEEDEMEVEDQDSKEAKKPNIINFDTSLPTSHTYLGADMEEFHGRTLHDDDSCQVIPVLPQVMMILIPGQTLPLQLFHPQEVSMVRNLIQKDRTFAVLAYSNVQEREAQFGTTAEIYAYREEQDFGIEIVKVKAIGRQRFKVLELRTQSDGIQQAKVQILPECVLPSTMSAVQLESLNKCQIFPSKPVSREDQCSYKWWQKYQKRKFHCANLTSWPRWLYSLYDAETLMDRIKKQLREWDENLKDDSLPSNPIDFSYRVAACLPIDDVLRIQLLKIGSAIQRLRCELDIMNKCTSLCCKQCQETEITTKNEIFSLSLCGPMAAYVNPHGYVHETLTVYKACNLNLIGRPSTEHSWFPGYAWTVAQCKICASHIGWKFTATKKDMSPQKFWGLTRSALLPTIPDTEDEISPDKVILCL
T1 sequence (Q16531 whole entry partner): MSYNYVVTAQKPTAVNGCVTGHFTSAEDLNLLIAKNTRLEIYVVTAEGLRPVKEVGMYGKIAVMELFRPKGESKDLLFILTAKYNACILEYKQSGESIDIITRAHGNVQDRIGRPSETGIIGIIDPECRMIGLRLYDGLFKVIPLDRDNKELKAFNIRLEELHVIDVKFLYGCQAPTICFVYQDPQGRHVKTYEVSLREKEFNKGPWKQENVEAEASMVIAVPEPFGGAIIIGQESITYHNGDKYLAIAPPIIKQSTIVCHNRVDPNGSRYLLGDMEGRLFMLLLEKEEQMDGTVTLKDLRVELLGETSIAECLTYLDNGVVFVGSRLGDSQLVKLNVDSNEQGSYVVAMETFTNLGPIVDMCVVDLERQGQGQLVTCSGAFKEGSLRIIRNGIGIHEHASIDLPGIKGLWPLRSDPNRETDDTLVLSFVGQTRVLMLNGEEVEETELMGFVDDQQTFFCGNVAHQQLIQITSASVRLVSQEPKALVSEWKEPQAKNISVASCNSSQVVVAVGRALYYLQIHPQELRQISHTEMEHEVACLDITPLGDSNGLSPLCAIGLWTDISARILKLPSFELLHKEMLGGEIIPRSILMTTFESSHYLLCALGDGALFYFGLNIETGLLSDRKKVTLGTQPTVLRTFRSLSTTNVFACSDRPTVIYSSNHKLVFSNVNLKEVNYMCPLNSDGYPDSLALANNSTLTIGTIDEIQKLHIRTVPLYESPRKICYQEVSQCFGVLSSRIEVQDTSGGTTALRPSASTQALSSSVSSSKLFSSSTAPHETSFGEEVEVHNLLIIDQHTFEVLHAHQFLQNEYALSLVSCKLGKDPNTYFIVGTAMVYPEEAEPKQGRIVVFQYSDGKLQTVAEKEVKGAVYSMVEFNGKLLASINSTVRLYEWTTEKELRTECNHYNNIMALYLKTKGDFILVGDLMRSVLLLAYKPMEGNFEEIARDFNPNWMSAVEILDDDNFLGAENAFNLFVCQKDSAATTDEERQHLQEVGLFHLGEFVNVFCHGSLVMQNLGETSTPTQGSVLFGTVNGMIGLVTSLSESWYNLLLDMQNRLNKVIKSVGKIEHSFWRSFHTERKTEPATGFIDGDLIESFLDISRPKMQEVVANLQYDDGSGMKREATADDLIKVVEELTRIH
Method in brief: (§4)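 Degradation is assessed by immunoblotting lysates of treated cells. Target bands are quantified by grayscale and normalised to an internal control, so degradation rate equals 100% minus % remaining.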

[5] = target: T2, GSPT1 (Homo sapiens, UniProt P15170+Q96SW2); experiment: Western blot degradation of GSPT1 (hPBMC); type: cell-based; details: Table D16
T2 construct: evaluate the effects of the compounds of the present disclosure on the expression of target proteins in cells; endogenous in cells; host or cells: hPBMC
T2 sequence (P15170 whole entry): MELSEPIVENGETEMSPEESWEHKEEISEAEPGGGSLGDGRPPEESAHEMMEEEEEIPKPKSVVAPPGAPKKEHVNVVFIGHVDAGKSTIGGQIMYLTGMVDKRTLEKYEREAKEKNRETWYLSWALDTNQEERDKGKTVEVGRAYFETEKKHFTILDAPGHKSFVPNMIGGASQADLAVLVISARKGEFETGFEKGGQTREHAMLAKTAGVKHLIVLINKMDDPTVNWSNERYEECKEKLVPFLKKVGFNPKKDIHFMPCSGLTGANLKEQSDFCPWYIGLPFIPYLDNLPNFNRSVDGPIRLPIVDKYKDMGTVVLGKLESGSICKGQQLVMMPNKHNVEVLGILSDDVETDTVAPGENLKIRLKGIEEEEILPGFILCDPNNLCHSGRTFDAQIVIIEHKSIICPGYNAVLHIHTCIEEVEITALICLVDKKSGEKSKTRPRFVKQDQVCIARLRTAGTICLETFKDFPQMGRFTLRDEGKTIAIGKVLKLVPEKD
T2 sequence (Q96SW2 whole entry): as the sequence (Q96SW2 whole entry) above
T2 sequence (Q16531 whole entry partner): as the sequence (Q16531 whole entry partner) above
Method in brief: as §4

[6] = target: T3, CK1a (Homo sapiens, UniProt P48729+Q96SW2); experiment: Western blot degradation of CK1a (hPBMC); type: cell-based; details: Table D16
T3 construct: evaluate the effects of the compounds of the present disclosure on the expression of target proteins in cells; endogenous in cells; host or cells: hPBMC
T3 sequence (P48729 whole entry): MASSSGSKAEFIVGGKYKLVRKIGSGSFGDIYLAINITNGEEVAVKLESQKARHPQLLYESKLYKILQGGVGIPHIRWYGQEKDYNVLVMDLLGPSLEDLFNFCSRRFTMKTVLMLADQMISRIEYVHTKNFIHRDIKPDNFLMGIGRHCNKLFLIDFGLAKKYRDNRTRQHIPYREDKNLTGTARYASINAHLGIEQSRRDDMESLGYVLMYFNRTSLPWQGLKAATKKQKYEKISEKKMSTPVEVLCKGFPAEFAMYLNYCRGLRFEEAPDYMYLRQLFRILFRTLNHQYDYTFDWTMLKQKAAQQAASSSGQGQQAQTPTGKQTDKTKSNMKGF
T3 sequence (Q96SW2 whole entry): as the sequence (Q96SW2 whole entry) above
T3 sequence (Q16531 whole entry partner): as the sequence (Q16531 whole entry partner) above
Method in brief: as §4

[7] = target: T4, IKZF3 (Homo sapiens, UniProt Q96SW2+Q9UKT9); experiment: Western blot degradation of IKZF3 (hPBMC); type: cell-based; details: Table D16
T4 construct: evaluate the effects of the compounds of the present disclosure on the expression of target proteins in cells; endogenous in cells; host or cells: hPBMC
T4 sequence (Q9UKT9 whole entry): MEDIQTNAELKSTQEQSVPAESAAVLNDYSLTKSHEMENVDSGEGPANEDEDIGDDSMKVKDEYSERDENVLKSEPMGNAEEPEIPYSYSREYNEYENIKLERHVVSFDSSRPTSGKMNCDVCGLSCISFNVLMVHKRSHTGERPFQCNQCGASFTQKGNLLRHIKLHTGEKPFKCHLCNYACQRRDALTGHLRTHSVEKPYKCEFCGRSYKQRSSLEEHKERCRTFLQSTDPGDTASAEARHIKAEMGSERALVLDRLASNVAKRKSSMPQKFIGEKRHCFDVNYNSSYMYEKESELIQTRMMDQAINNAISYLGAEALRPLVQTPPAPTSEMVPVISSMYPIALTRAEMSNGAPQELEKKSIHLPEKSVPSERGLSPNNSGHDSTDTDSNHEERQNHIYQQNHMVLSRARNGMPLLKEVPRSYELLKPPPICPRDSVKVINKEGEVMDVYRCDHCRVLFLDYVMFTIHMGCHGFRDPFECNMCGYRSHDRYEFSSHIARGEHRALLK
T4 sequence (Q96SW2 whole entry): as the sequence (Q96SW2 whole entry) above
T4 sequence (Q16531 whole entry partner): as the sequence (Q16531 whole entry partner) above
Method in brief: as §4

[8] = target: T5, WEE1 (Homo sapiens, UniProt P30291+Q96SW2); experiment: Western blot degradation of WEE1 (hPBMC); type: cell-based; details: Table D16
T5 construct: evaluate the effects of the compounds of the present disclosure on the expression of target proteins in cells; endogenous in cells; host or cells: hPBMC
T5 sequence (P30291 whole entry): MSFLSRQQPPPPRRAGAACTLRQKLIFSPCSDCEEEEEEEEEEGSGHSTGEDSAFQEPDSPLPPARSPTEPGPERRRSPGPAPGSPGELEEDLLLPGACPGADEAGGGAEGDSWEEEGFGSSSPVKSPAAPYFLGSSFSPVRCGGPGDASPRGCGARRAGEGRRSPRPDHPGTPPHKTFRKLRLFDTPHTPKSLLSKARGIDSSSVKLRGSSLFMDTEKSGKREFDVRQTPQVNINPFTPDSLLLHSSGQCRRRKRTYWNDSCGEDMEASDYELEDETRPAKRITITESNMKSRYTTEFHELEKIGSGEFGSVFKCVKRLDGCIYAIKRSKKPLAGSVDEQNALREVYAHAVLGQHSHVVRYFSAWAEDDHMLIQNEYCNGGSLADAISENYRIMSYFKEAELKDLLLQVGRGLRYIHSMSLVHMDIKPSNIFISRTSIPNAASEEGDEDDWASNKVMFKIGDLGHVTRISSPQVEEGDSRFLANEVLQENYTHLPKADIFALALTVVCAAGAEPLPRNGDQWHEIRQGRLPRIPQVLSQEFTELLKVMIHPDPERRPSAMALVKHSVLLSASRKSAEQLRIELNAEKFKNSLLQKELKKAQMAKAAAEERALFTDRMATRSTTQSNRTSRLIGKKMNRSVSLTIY
T5 sequence (Q96SW2 whole entry): as the sequence (Q96SW2 whole entry) above
T5 sequence (Q16531 whole entry partner): as the sequence (Q16531 whole entry partner) above
Method in brief: as §4

[9] = target: T6, IKZF1 (Homo sapiens, UniProt Q13422+Q96SW2); experiment: Western blot degradation of IKZF1 (hPBMC); type: cell-based; details: Table D16
T6 construct: evaluate the effects of the compounds of the present disclosure on the expression of target proteins in cells; endogenous in cells; host or cells: hPBMC
Method in brief: as §4

[10] = tested on: MM.1S; experiment: CCK-8 proliferation, MM.1S; type: cell-based; details: Homo sapiens, MM1.S; CCK-8; 72 hours; read-out: Inhibitory activity (IC50) on tumor cell proliferation, MM1S
Method in brief: as §3

[11] = tested on: SR; experiment: CCK-8 proliferation, SR; type: cell-based, Human; details: Homo sapiens; Table B10, compounds designed based on the IRAK4 inhibitors; SR cells; read-out: Inhibitory activity (IC50, nM) on tumor cell proliferation, SR
Method in brief: as §3

SMILES: O=C1CCN(c2ccc(CN3CCC(n4cc(NC(=O)c5cnn6ccc(N7CCOCC7)nc56)c(C(F)F)n4)CC3)cc2F)C(=O)N1 [GT-03814, N-(3-(difluoromethyl)-1-(1-(4-(2,4-dioxotetrahydropyrimidin-1(2H)-yl)-3-fluorobenzyl)piperidin-4-yl)-1H-pyrazol-4-yl)-5-morpholinopyrazolo[1,5-a]pyrimidine-3-carboxamide]
- IC50 [1]: 100 to 500 nM

SMILES: Cc1ccsc1C(=O)n1nc(Nc2ccc(S(=O)(=O)N3CCN(Cc4cccc(N5CCC(=O)NC5=O)c4)CC3)cc2)nc1N [GT-06859, 1-(3-((4-((4-((5-amino-1-(3-methylthiophene-2-carbonyl)-1H-1,2,4-triazol-3-yl)amino)phenyl)sulfonyl)piperazin-1-yl)methyl)phenyl)dihydropyrimidine-2,4(1H,3H)-dione]
- pIC50 [1]: 6.30 to 7.00

SMILES: Nc1nc(Nc2ccc(S(=O)(=O)N3CCN(Cc4ccc(N5CCC(=O)NC5=O)cc4)CC3)cc2)nn1C(=O)c1c(F)cccc1F [GT-06751, 1-(4-((4-((4-((5-amino-1-(2,6-difluorobenzoyl)-1H-1,2,4-triazol-3-yl)amino)phenyl)sulfonyl)piperazin-1-yl)methyl)phenyl)dihydropyrimidine-2,4(1H,3H)-dione]
- pIC50 [2]: 6.00 to 6.30
- pIC50 [1]: 6.00 to 6.30

SMILES: Cc1cc(S(=O)(=O)N2CCN(Cc3ccc(N4CCC(=O)NC4=O)cn3)CC2)ccc1Nc1ncc(Br)c(Nc2cccc(F)c2C(N)=O)n1 [GT-06833, 2-((5-bromo-2-((4-((4-((5-(2,4-dioxotetrahydropyrimidin-1(2H)-yl)pyridin-2-yl)methyl)piperazin-1-yl)sulfonyl)-2-methylphenyl)amino)pyrimidin-4-yl)amino)-6-fluorobenzamide]
- pIC50 [1]: 7.00 to 7.30

SMILES: Cc1ccsc1C(=O)n1nc(Nc2ccc(S(=O)(=O)N3CCN(Cc4ccc(C5CCC(=O)NC5=O)c(F)c4)CC3)cc2)nc1N (centres unmarked) [GT-06855, 3-(4-((4-((4-((5-amino-1-(3-methylthiophene-2-carbonyl)-1H-1,2,4-triazol-3-yl)amino)phenyl)sulfonyl)piperazin-1-yl)methyl)-2-fluorophenyl)piperidine-2,6-dione]
- pIC50 [1]: 6.00 to 6.30

SMILES: Nc1nc(Nc2ccc(S(=O)(=O)N3CCN(Cc4ccc(N5CCC(=O)NC5=O)cn4)CC3)cc2)nn1C(=O)c1c(F)cccc1F [GT-06753, 1-(6-((4-((4-((5-amino-1-(2,6-difluorobenzoyl)-1H-1,2,4-triazol-3-yl)amino)phenyl)sulfonyl)piperazin-1-yl)methyl)pyridin-3-yl)dihydropyrimidine-2,4(1H,3H)-dione]
- pIC50 [1]: 6.30 to 7.00

SMILES: Cc1ccsc1C(=O)n1nc(Nc2ccc(S(=O)(=O)N3CCN(Cc4ccc(N5CCC(=O)NC5=O)cc4F)CC3)cc2)nc1N [GT-06858, 1-(4-((4-((4-((5-amino-1-(3-methylthiophene-2-carbonyl)-1H-1,2,4-triazol-3-yl)amino)phenyl)sulfonyl)piperazin-1-yl)methyl)-3-fluorophenyl)dihydropyrimidine-2,4(1H,3H)-dione]
- pIC50 [1]: 6.30 to 7.00

SMILES: Cc1ccsc1C(=O)n1nc(Nc2ccc(S(=O)(=O)N3CCN(Cc4ccc(N5CCC(=O)NC5=O)cn4)CC3)cc2)nc1N [GT-06860, 1-(6-((4-((4-((5-amino-1-(3-methylthiophene-2-carbonyl)-1H-1,2,4-triazol-3-yl)amino)phenyl)sulfonyl)piperazin-1-yl)methyl)pyridin-3-yl)dihydropyrimidine-2,4(1H,3H)-dione]
- pIC50 [1]: 6.30 to 7.00

SMILES: O=C1CCC(c2cc(CO)ccn2)C(=O)N1 (centres unmarked) [GT-07050, 3-(4-(Hydroxymethyl)pyridin-2-yl)piperidine-2,6-dione]
- pIC50 [3]: 5.30 to 6.00
- Degradation of substrate protein IKZF2 (substrate protein remaining %) [4]: B (B is defined as substrate protein remaining % > 80%)
- Degradation of substrate protein GSPT1 (substrate protein remaining %) [5]: A (A is defined as 0% ≤ substrate protein remaining % ≤ 80%)
- Degradation of substrate protein CKla (substrate protein remaining %) [6]: A (A is defined as 0% ≤ substrate protein remaining % ≤ 80%)
- Degradation of substrate protein IKZF3 (substrate protein remaining %) [7]: A (A is defined as 0% ≤ substrate protein remaining % ≤ 80%)
- Degradation of substrate protein WEE1 (substrate protein remaining %) [8]: B (B is defined as substrate protein remaining % > 80%)
- Degradation of substrate protein IKZF1 (substrate protein remaining %) [9]: A (A is defined as 0% ≤ substrate protein remaining % ≤ 80%)
- pIC50 [10]: 5.30 to 6.00

SMILES: Nc1nc(Nc2ccc(S(=O)(=O)N3CCN(Cc4cccc(N5CCC(=O)NC5=O)c4)CC3)cc2)nn1C(=O)c1c(F)cccc1F [GT-06752, 1-(3-((4-((4-((5-amino-1-(2,6-difluorobenzoyl)-1H-1,2,4-triazol-3-yl)amino)phenyl)sulfonyl)piperazin-1-yl)methyl)phenyl)dihydropyrimidine-2,4(1H,3H)-dione]
- pIC50 [1]: 6.00 to 6.30

SMILES: O=C1CCN(c2cncc(CCl)c2)C(=O)N1 [GT-07047, 1-(5-(Chloromethyl)pyridin-3-yl)dihydropyrimidine-2,4(1H,3H)-dione]
- pIC50 [3]: 5.30 to 6.00
- Degradation of substrate protein IKZF2 (substrate protein remaining %) [4]: A (A is defined as 0% ≤ substrate protein remaining % ≤ 80%)
- Degradation of substrate protein GSPT1 (substrate protein remaining %) [5]: B (B is defined as substrate protein remaining % > 80%)
- Degradation of substrate protein CKla (substrate protein remaining %) [6]: A (A is defined as 0% ≤ substrate protein remaining % ≤ 80%)
- Degradation of substrate protein IKZF3 (substrate protein remaining %) [7]: A (A is defined as 0% ≤ substrate protein remaining % ≤ 80%)
- Degradation of substrate protein WEE1 (substrate protein remaining %) [8]: B (B is defined as substrate protein remaining % > 80%)
- Degradation of substrate protein IKZF1 (substrate protein remaining %) [9]: A (A is defined as 0% ≤ substrate protein remaining % ≤ 80%)
- pIC50 [10]: 5.30 to 6.00

SMILES: Cc1cc(-c2nc(C(=O)Nc3cc4oc(N5CCN(Cc6ccc(C7CCC(=O)NC7=O)cc6)CC5)nc4nc3N3CC[C@@H](O)C3)co2)ccn1 (stereo partly drawn) [GT-03846, N-(2-(4-(4-(2,6-dioxopiperidin-3-yl)benzyl)piperazin-1-yl)-5-((R)-3-hydroxypyrrolidin-1-yl)oxazolo[4,5-b]pyridin-6-yl)-2-(2-methylpyridin-4-yl)oxazole-4-carboxamide]
- IC50 [1]: 50 to 100 nM

SMILES: Cc1cc(S(=O)(=O)N2CCN(Cc3ccc(C4CCC(=O)NC4=O)cc3)CC2)ccc1Nc1ncc(Br)c(Nc2cccc(F)c2C(N)=O)n1 (centres unmarked) [GT-06830, 2-((5-bromo-2-((4-((4-(4-(2,6-dioxopiperidin-3-yl)benzyl)piperazin-1-yl)sulfonyl)-2-methylphenyl)amino)pyrimidin-4-yl)amino)-6-fluorobenzamide]
- pIC50 [1]: 6.30 to 7.00

SMILES: Cc1ccsc1C(=O)n1nc(Nc2ccc(S(=O)(=O)N3CCN(Cc4ccc(C5CCC(=O)NC5=O)cc4)CC3)cc2)nc1N (centres unmarked) [GT-06854, 3-(4-((4-((4-((5-amino-1-(3-methylthiophene-2-carbonyl)-1H-1,2,4-triazol-3-yl)amino)phenyl)sulfonyl)piperazin-1-yl)methyl)phenyl)piperidine-2,6-dione]
- pIC50 [1]: 6.30 to 7.00

SMILES: Cc1cc(-c2nc(C(=O)Nc3cc4oc(N5CCN(Cc6ccc(C7CCC(=O)NC7=O)c(F)c6)CC5)nc4nc3N3CC[C@@H](O)C3)co2)ccn1 (stereo partly drawn) [GT-03847, N-(2-(4-(4-(2,6-dioxopiperidin-3-yl)-3-fluorobenzyl)piperazin-1-yl)-5-((R)-3-hydroxypyrrolidin-1-yl)oxazolo[4,5-b]pyridin-6-yl)-2-(2-methylpyridin-4-yl)oxazole-4-carboxamide]
- IC50 [1]: 50 to 100 nM

SMILES: O=C1CCC(c2ccc(CN3CCC(n4cc(NC(=O)c5cnn6ccc(N7CCOCC7)nc56)c(C(F)F)n4)CC3)cc2)C(=O)N1 (centres unmarked) [GT-03813, N-(3-(difluoromethyl)-1-(1-(4-(2,6-dioxopiperidin-3-yl)benzyl)piperidin-4-yl)-1H-pyrazol-4-yl)-5-morpholinopyrazolo[1,5-a]pyrimidine-3-carboxamide]
- IC50 [11]: 100 to 500 nM
- IC50 [1]: 100 to 500 nM
